Broadly, the IC50 is the point on the concentration scale where inhibition reaches its midpoint. High values mean weaker potency, low ones greater potency.

The record followed here is ChEMBL document CHEMBL1129772, “Synthesis and radical scavenging activity of 3,3-dialkyl-3,4-dihydro-isoquinoline 2-oxides” (Bioorg Med Chem Lett, 1996).

In this experiment the test system is Liposome. Put plainly: In vitro inhibition of peroxyl radical-dependent oxidation of liposomes from soybean phosphatidylcholine by ethanol injection. The experiment is classed as functional, Glycine max.

Consider `CC1(C)Cc2cc(Cl)cc(Cl)c2C=[N+]1[O-]`, for which inhibition was half-maximal at 18 µM (IC50).

Molecule `[O-][N+]1=Cc2ccccc2CC12CCCCC2` had an IC50 of 8 µM.

As for `COc1ccc2c(c1)C=[N+]([O-])C(C)(C)C2`, the IC50 worked out at 67 µM.

With `CC1(C)Cc2ccccc2C=[N+]1[O-]`, the midpoint of inhibition, the IC50, lay at 200 µM.

With `COc1cc2c(cc1OC)CC(C)(C)[N+]([O-])=C2`, the IC50 worked out at 130 µM. This IC50 is about 1.5-fold lower than that of the molecule before.

In turn, `CC1(C)Cc2cc(F)ccc2C=[N+]1[O-]` yielded an IC50 of 160 µM.

With `[O-][N+]1=Cc2ccccc2CC12CCCC2`, the IC50 came to 21 µM.

Consider `CC1(C)Cc2c(Cl)cccc2C=[N+]1[O-]`, for which half-maximal inhibition (IC50) was put at 24 µM.

In the case of `COc1ccc2c(c1)CC1(CCCCC1)[N+]([O-])=C2`, the IC50 was found to be 11 µM.

For `CC(C)(C)/[N+]([O-])=C/c1ccccc1`, the IC50 amounted to 2170 µM.

The molecule `COc1cccc2c1C=[N+]([O-])C1(CCCCC1)C2` displayed an IC50 of 38 µM. This IC50 is about 57-fold lower than that of the molecule before.

In the case of `CC1(C)Cc2cc(Cl)ccc2C=[N+]1[O-]`, the IC50 worked out at 55 µM.

Molecule `CC1(C)Cc2cccc(Cl)c2C=[N+]1[O-]` came in with an IC50 of 45 µM. This IC50 and that of the molecule before are within 1.5-fold of each other.

For `CC1(C)Cc2ccc(Cl)cc2C=[N+]1[O-]`, the half-inhibitory concentration (IC50) came out at 41 µM.

`CC1(C)Cc2ccc(F)cc2C=[N+]1[O-]` showed an IC50 of 67 µM. This IC50 is about 1.6-fold higher than that of the molecule before.

On to `COc1ccc2c(c1)CC(C)(C)[N+]([O-])=C2`, for which the concentration for half-maximal inhibition (IC50) amounted to 69 µM. The IC50 values of the last two molecules are within 1.5-fold of each other.

The molecule `[O-][N+]1=Cc2cc(Cl)ccc2CC12CCCCC2` returned an IC50 of 3 µM.

For `COc1ccc(F)c2c1CC(C)(C)[N+]([O-])=C2`, the IC50 stood at 56 µM. This IC50 lies about 19-fold higher than the previous one.
